Publication PMC5175396, “Cytotoxicity of Plumbagin, Rapanone and 12 other naturally occurring Quinones from Kenyan Flora towards human carcinoma cells” (BMC Pharmacology & Toxicology, 2016)
Read-outs that look alike come from different tables or passages of the source.

Legend:
[1] = tested on: normal CRL2120 human skin fibroblasts; assay: Neutral red (NR) uptake cytotoxicity assay, normal CRL2120 fibroblasts; assay type: cell-based; conditions: Skin fibroblast, 72 h incubation
Excerpt: (§1) Six human cancer cell lines and one normal cell line were used in this study. They included A549 human non-small cell lung cancer (NSCLC) cell line, obtained from the Institute for Fermentation, Osaka (IFO, Japan) and provided by Prof. Dr. Tansu Koparal (Anadolu University, Eskisehir, Turkey), SPC212 human mesothelioma cell line obtained from American Type Culture Collection (ATCC) and provided by Dr. Asuman Demiroğlu Zergeroğlu (Gebze Technical University, Kocaeli, Turkey), DLD-1 colorectal adenocarcinoma cell lines obtained from ATCC (CCL-221), Caco2 colorectal adenocarcinoma cells (ATCC, HTB-37) obtained from the ŞAP Institute of Turkey (Ankara), HepG2 hepatocarcinoma cells (ATCC, HB-8065) and MCF-7 breast adenocarcinoma cells (ATCC, HTB-22) were provided by Prof. Dr. Tansu Koparal (Anadolu University, Eskisehir, Turkey). The normal CRL2120 human skin fibroblasts were obtained from ATCC [CCD1094Sk (ATCC, CRL-2120)]. The cells were maintained as a monolayer in DMEM medium (Sigma-aldrich, Munich, Germany) medium supplemented with 10% fetal calf serum and 1% penicillin (100 U/mL)-streptomycin (100 μg/mL) in a humidified 5% CO2 atmosphere at 37 °C.
(§2) The cytotoxicity of samples was performed by NR uptake assay as previously described. This method is based on the ability of viable cells to incorporate and bind the supravital dye NR in the lysosomes. The procedure is cheaper and more sensitive than other cytotoxicity tests. […] Briefly, cells were detached by treatment with 0.25% trypsin/EDTA (Invitrogen) and an aliquot of 1 × 10^4 cells was placed in each well of a 96-well cell culture plate […]. The cells were allowed to attach overnight and subsequently treated with different concentrations of the 14 compounds. Each of the studied samples was immediately added in varying concentrations in additional 100 μL of culture medium to obtain a total volume of […]/well. After 72 h incubation in humidified 5% CO2 atmosphere at 37 °C, the medium was removed and 200 μL fresh medium containing 50 μg/mL NR was added to each well and incubation continued for an additional 3 h at 37 °C in 5% CO2 atmosphere. The dye medium was then removed and each well was then washed rapidly with 200 μL phosphate buffer saline (PBS) followed by addition of 200 μL of acetic acid-water-ethanol in water (1:49:50). The plates were kept for 15 min at room temperature to extract the dye and then shaken for a few minutes on a GFL 3012 shaker (Gesellschaft für Labortechnik mbH, Burgwedel, Germany). Absorbance was measured on ELx 808 Ultra Microplate Reader (Biotek) equipped with a 540 nm filter. Each assay was done at least three times, with three replicates each. The viability was evaluated based on a comparison with untreated cells. The IC50 values represent the sample’s concentrations required to inhibit 50% of cell proliferation and were calculated from a calibration curve by linear regression using Microsoft Excel.

[2] = tested on: six tested cancer cell lines (A549, SPC212, DLD-1, Caco-2, MCF-7, HepG2); assay: Neutral red uptake assay, statements over the six tested cancer cell lines; assay type: cell-based, human; conditions: for tested cancer cell lines in which recordable IC50 values were obtained: out of six cancer cell lines; for IC50: Homo sapiens, bound valid for all six cancer cell lines, neutral red assay
Excerpt: as §1, §2

[3] = tested on: Caco2 colorectal adenocarcinoma cells; assay: Neutral red (NR) uptake cytotoxicity assay, Caco-2; assay type: cell-based, human; conditions: Homo sapiens, Caco-2; neutral red assay, 72 h incubation
Excerpt: as §1, §2

[4] = tested on: SPC212 human mesothelioma cell line; assay: Neutral red (NR) uptake cytotoxicity assay, SPC212; assay type: cell-based; conditions: for IC50: neutral red assay, 72 h incubation, read-out: IC50 SPC212; for selectivity index SPC212: IC50 in CRL2120 normal fibroblasts divided by IC50 in SPC212
Excerpt: as §1, §2

[5] = tested on: A549 human non-small cell lung cancer (NSCLC) cell line; assay: Neutral red (NR) uptake cytotoxicity assay, A549; assay type: cell-based; conditions: for IC50: neutral red assay, 72 h incubation; for selectivity index A549: IC50 in CRL2120 normal fibroblasts divided by IC50 in A549
Excerpt: as §1
as §2, with “lysosomes.” for “lysosomes. The procedure is cheaper and more sensitive than other cytotoxicity tests.”

[6] = tested on: HepG2 hepatocarcinoma cells; assay: Neutral red (NR) uptake cytotoxicity assay, HepG2; assay type: cell-based, human; conditions: for IC50: Homo sapiens, HepG2, neutral red assay, 72 h incubation, read-out: IC50 HepG2; for selectivity index HepG2: IC50 in CRL2120 normal fibroblasts divided by IC50 in HepG2
Excerpt: as §1, §2

[7] = tested on: DLD-1 colorectal adenocarcinoma cell lines; assay: Neutral red (NR) uptake cytotoxicity assay, DLD-1; assay type: cell-based, human; conditions: for IC50: Homo sapiens, DLD-1, neutral red assay, 72 h incubation, read-out: IC50 DLD-1; for selectivity index DLD-1: IC50 in CRL2120 normal fibroblasts divided by IC50 in DLD-1
Excerpt: as §1, §2

[8] = tested on: MCF-7 breast adenocarcinoma cells; assay: Neutral red (NR) uptake cytotoxicity assay, MCF-7; assay type: cell-based, human; conditions: for IC50: neutral red assay, 72 h incubation, read-out: IC50 MCF-7; for selectivity index MCF-7: IC50 in CRL2120 normal fibroblasts divided by IC50 in MCF-7
Excerpt: as §1, §2

[9] = Neutral red (NR) uptake cytotoxicity assay, Caco-2; assay type: cell-based, human; conditions: human; IC50 in CRL2120 normal fibroblasts divided by IC50 in Caco-2; read-out: selectivity index Caco-2 (converted)
Excerpt: as §1, §2

Compound | IC50 [1] [µM] | tested cancer cell lines in which recordable IC50 values were obtained [2] | IC50 [3] [µM] | IC50 ([4]; Homo sapiens, 72 h) [µM] | selectivity index SPC212 [4] | IC50 ([5]; Homo sapiens, A549, 72 h) [µM] | selectivity index A549 [5] | IC50 [6] [µM] | IC50 [7] [µM] | IC50 ([8]; Homo sapiens, MCF7, 72 h) [µM] | IC50 [2] [µM] | selectivity indexes (CRL2120 vs carcinoma cells), lower bound over the cancer cell lines ([2]; IC50 CRL2120 / IC50 cancer cell line) | selectivity ratio at 72 h [9] | IC50 [5] [µM] | selectivity index HepG2 [6] | selectivity index DLD-1 [7] | selectivity index MCF-7 [8] | IC50 [4] [µM] | IC50 [8] [µM]
Cc1cc(O)c2c(c1)C(=O)c1cccc(O)c1C2=O [Compound 1, chrysophanol] | > 157 | 2/6 | > 157 | 146 ± 10.6 | > 1.08 | 52.2 ± 5.51 | > 3.01 | > 157 | > 157 | > 157 | – | – | – | – | – | – | – | – | –
Cc1cc(O)c2c(c1)C(=O)c1cc(O)cc(O)c1C2=O [Compound 2, emodin] | > 148 | – | 73.6 ± 3.52 | 99.3 ± 8.46 | > 1.49 | 99.3 | > 2.23 | 71.7 ± 4.52 | 77.3 ± 8.77 | 37.6 ± 2.59 | < 100 | above 1.49 | > 2.01 | 66.3 ± 6.19 | > 2.07 | > 1.92 | > 3.94 | – | –
COC(=O)c1c(O)cc2c(c1C)C(=O)c1c(O)cc(O)cc1C2=O [Compound 3, 3,6,8-trihydroxy-1-methylanthraquinone-2-carboxylic acid methyl ester] | > 122 | – | > 122 | > 122 | – | > 122 | – | > 122 | > 122 | > 122 | > 120 | – | – | – | – | – | – | – | –
CCC1=C(O)C(=O)C=C(O)C1=O [Compound 5, 2,5-dihydroxy-3-ethyl-2,5-cyclohexadiene-1,4-dione] | 95.5 ± 5.64 | – | > 238 | > 238 | – | > 238 | – | > 238 | > 238 | > 238 | > 120 | – | – | – | – | – | – | – | –
CCCC1=C(O)C(=O)C=C(O)C1=O [Compound 6, 2,5-dihydroxy-3-propyl-2,5-cyclohexadiene-1,4-dione] | > 222 | 1/6 | > 222 | > 222 | – | > 222 | – | > 222 | > 222 | 162 ± 11.4 | – | – | – | – | – | – | – | – | –
CCCCC1=C(O)C(=O)C=C(O)C1=O [Compound 7, 2,5-dihydroxy-3-butyl-2,5-cyclohexadiene-1,4-dione] | > 204 | 5/6 | 89.7 ± 8.8 | 87.9 ± 5.66 | > 2.32 | 68.6 ± 7.55 | > 2.97 | 176 ± 28.5 | > 204 | 64.6 ± 13.4 | – | – | > 2.27 | – | > 1.16 | – | > 3.16 | – | –
CCCCCCCC1=C(O)C(=O)C=C(O)C1=O [Compound 8, 2,5-dihydroxy-3-heptyl-2,5-cyclohexadiene-1,4-dione] | 117 ± 1.22 | 5/6 | 63.9 ± 5.97 | < 10 | – | 108 ± 17.9 | – | 94.2 ± 2.7 | > 168 | 38.8 ± 3.33 | – | – | 2.27 | – | 1.16 | – | 3.16 | – | –
CCCCCCCCCCCCCCCC1=C(O)C(=O)C=C(O)C1=O [Compound 10, 2,5-dihydroxy-3-pentadecyl-2,5-cyclohexadiene-1,4-dione] | > 124 | – | 27.8 ± 2.03 | < 10 | > 14.81 | 43.3 ± 2.72 | > 2.87 | 48.4 ± 3.73 | 51.2 ± 5.54 | 30.4 ± 8.64 | < 100 | – | > 4.47 | – | > 2.57 | > 2.43 | > 4.09 | 8.39 ± 0.48 | –
CCCCCCCCCCCC1=C(O)C(=O)C=C(OC)C1=O [Compound 11, 2-hydroxy-5-methoxy-3-undecyl-1,4-benzoquinone] | 44.2 ± 0.2 | – | 38.9 ± 2.35 | 38.3 ± 3.23 | 1.15 | 50.3 ± 2.6 | 0.88 | 61.3 ± 5.53 | 45.4 ± 4.89 | 22.6 | < 100 | – | 1.14 | – | 0.72 | 0.97 | 1.96 | – | 22.6 ± 1.57
CCCCC=CCCCCCCCCCCCCCC1=C(OC)C(=O)C=C(OC)C1=O [Compound 12, 2,5 dimethoxy-6-(14-nonadecenyl)-1,4-benzoquinone] | > 129 | – | > 129 | > 129 | – | > 129 | – | > 129 | > 129 | > 129 | > 120 | – | – | – | – | – | – | – | –
COC1=CC(=O)C(O)=C(CCCCCCCC=CCCCCCCCC2=C(O)C(=O)C(C)=C(O)C2=O)C1=O [Compound 14, ardisiaquinone B] | 71.3 ± 5.23 | 4/6 | > 123 | 3.14 ± 0.78 | 22.72 | 21.7 ± 1.5 | 3.29 | 115 ± 4.29 | 114 ± 3.68 | > 123 | – | – | – | – | 0.62 | 0.62 | – | – | –
